Test results published in ChEMBL document CHEMBL5096183, “Contemporary advances of cyclic molecules proposed for inflammation” (Eur J Med Chem, 2021).
Values after ≈ are worked out from the molar mass of the structure shown. Values belong to the molecule of their own block, whether it stands above or below them.

What was measured:
[1] = target: Epidermal growth factor receptor (Homo sapiens, UniProt P00533); assay: Inhibition of recombinant EGFR (unknown origin) expressed in baculovirus incubated for 10 mins by europium-labeled antiphosphotyrosine/enhancement solution based assay
Chain of Epidermal growth factor receptor (P00533 whole entry): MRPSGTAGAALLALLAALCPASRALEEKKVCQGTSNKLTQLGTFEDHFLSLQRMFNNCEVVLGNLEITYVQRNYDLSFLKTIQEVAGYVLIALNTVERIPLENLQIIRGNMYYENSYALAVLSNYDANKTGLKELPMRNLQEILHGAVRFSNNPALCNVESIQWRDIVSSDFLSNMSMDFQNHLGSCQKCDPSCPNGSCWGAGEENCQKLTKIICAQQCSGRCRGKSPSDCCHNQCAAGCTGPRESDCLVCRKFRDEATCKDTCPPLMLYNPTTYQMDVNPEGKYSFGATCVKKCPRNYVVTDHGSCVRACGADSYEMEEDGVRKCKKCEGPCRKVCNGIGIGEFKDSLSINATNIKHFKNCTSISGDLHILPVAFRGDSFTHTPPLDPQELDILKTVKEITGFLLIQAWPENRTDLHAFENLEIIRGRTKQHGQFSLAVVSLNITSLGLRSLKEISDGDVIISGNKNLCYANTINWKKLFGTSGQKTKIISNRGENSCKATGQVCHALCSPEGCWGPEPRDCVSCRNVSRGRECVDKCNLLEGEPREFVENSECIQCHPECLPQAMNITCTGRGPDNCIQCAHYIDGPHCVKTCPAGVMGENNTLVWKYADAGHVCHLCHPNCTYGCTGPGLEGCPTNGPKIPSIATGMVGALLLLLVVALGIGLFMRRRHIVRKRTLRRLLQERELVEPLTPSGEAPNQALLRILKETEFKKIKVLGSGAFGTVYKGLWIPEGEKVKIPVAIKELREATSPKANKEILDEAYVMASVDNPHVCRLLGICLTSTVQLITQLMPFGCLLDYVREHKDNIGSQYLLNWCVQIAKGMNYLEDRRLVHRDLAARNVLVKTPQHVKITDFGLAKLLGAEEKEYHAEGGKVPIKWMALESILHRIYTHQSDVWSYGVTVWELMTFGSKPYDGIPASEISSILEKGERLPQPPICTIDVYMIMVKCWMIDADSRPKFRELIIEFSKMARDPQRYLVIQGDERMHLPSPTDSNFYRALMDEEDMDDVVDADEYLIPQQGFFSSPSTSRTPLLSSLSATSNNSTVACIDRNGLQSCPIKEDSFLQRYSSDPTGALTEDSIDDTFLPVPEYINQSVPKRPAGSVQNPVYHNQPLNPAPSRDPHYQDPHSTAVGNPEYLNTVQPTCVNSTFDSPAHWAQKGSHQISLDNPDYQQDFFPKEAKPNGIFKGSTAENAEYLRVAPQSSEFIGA

[2] = Inhibition of mouse full-length GST-tagged BRAF V600E mutant incubated for 1 hrs
Rattus norvegicus [3] = assay: Anti-inflammatory activity against carrageenan-induced paw edema in Albino rat assessed as percentage of protection at 50 mg/kg,po pretreated for 1 hrs followed by carrageenan addition measured after 4 hrs by plethysmography method relative to control; type: functional; details: time 5 hrs
[4] = Acute toxicity in PO dosed Wistar albino rat measured for 14 days; type: organism-based; details: in vivo, time 14 day
[5] = target: T1, Prostaglandin G/H synthase 1 (Ovis aries, UniProt P05979); assay: Inhibition of ovine COX-1 preincubated for 10 mins followed by arachidonic acid addition for 2 mins
T1 sequence (P05979 whole entry): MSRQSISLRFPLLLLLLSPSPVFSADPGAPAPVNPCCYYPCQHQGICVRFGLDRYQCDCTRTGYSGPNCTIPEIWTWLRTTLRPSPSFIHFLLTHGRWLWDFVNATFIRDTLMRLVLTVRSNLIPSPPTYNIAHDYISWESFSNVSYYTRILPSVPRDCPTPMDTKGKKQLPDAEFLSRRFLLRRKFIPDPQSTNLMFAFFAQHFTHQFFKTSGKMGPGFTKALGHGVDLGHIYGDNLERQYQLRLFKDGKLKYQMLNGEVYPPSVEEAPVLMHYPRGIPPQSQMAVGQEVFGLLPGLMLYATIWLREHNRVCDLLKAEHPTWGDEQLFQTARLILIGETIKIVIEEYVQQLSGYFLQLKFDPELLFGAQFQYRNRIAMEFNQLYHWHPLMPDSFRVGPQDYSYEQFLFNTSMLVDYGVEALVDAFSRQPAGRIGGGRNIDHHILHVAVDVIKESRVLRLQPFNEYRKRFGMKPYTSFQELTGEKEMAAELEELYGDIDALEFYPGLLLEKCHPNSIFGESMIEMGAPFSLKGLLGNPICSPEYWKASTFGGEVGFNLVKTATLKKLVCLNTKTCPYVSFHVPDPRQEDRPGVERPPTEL

[6] = target: T2, Prostaglandin G/H synthase 2 (Homo sapiens, UniProt P35354); assay: Inhibition of human recombinant COX-2
T2 sequence (P35354 whole entry): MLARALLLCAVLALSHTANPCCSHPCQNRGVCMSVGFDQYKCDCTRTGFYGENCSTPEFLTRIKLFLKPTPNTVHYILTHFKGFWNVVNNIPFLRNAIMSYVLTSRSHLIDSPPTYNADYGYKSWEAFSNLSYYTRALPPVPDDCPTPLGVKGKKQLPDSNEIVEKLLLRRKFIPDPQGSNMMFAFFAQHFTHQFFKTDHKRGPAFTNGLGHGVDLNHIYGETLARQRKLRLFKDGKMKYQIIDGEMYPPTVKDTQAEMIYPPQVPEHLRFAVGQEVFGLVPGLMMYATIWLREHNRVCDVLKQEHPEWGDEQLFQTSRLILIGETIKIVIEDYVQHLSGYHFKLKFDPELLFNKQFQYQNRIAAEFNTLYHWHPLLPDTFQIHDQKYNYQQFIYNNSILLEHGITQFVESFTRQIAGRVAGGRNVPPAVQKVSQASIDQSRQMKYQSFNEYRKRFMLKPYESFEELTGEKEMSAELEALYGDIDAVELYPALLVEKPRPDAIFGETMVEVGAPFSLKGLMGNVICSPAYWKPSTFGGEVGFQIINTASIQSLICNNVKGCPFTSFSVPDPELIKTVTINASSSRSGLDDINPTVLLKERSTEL

RAW264.7 [7] = assay: Anti-inflammatory against LPS induced mouse RAW 264.7 cells assessed as inhibition of IL-6 measured for 24 hrs by ELISA analysis; type: functional, cell-based; details: RAW264.7, 24 h
RAW264.7 [8] = assay: Anti-inflammatory against LPS induced mouse RAW 264.7 cells assessed as inhibition of IL-1beta measured for 24 hrs by ELISA analysis; type: functional, cell-based; details: RAW264.7, 24 h
RAW264.7 [9] = assay: Anti-inflammatory against LPS induced mouse RAW 264.7 cells assessed as inhibition of NO measured for 24 hrs by ELISA analysis; type: functional, cell-based; details: RAW264.7, 24 h
[10] = Inhibition of soy 15-LOX enzyme immunoassay; set-up: species or system Glycine max
Rattus norvegicus [11] = assay: Anti-inflammatory activity against carrageenan-induced paw edema in PO dosed Wistar albino rat assessed as edema inhibition percentage measured for 2 hrs relative to control; type: functional
Rattus norvegicus [12] = assay: Anti-inflammatory activity against carrageenan-induced paw edema in PO dosed Wistar albino rat measured after 2 hrs; type: functional
Mus musculus [13] = assay: Analgesic activity in hot plate induced thermal pain Swiss albino mouse model assessed as change in latency at 10 mg/kg, po measured at 1 to 2 hrs relative to control; type: functional; details: time 1-2 hrs
Rattus norvegicus [14] = assay: Anti-inflammatory activity against formalin-induced foot paw edema in Wistar rat assessed as oedema inhibition at 10 mg/kg,po measured for 1 to 3 hrs by plethysmometric analysis relative to control; type: functional; details: time 1-3 hrs
[15] = target: T3, Seed linoleate 13S-lipoxygenase-1 (Glycine max, UniProt P08170); assay: Inhibition of soybean LOX-1 using linoleic acid as substrate measured for 3 mins
T3 sequence (P08170 whole entry): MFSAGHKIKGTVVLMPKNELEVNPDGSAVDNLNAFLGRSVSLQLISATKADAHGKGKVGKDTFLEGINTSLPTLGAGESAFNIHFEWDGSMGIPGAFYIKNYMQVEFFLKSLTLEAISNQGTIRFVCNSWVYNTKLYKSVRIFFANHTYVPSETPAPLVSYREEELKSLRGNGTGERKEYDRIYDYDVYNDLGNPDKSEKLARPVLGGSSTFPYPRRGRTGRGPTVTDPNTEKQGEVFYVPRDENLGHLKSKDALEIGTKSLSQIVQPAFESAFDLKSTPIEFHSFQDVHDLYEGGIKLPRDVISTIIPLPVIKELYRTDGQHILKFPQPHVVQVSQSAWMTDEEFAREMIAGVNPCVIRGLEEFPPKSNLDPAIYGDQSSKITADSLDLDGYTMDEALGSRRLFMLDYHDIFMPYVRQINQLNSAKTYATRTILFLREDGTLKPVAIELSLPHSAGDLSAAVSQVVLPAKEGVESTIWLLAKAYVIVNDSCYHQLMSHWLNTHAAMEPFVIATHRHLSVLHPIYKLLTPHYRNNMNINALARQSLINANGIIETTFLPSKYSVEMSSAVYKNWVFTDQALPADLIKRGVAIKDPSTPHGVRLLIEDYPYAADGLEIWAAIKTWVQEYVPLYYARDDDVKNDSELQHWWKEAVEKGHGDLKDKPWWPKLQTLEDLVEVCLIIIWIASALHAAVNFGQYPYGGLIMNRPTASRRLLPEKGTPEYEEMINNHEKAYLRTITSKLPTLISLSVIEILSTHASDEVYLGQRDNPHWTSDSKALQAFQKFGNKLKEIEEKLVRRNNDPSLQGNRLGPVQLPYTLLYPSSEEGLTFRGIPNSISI

[16] = target: T4, Seed linoleate 13S-lipoxygenase-1 (Glycine max) (UniProt P08170); assay: Binding affinity to soybean LOX-1 assessed as quenching ability by fluorescence based assay relative to control
T4 sequence (whole entry): T3 sequence (P08170 whole entry)

[17] = Antioxidant activity assessed as DPPH radical scavenging activity incubated for 20 mins by UV spectrometric analysis; type: functional
Rattus norvegicus [18] = assay: Anti-inflammatory activity against Carrageenan-induced paw edema in Wistar rat at 5 mg/kg, po pretreated for 30 mins followed by carrageenan addition after 4 hrs by Plethysmometric analysis relative to control; type: functional; details: time 4.5 hrs
Rattus norvegicus [19] = assay: Anti-inflammatory activity against carrageenan-induced paw edema in rat
Rattus norvegicus [20] = assay: Anti-inflammatory activity against carrageenan-induced paw edema in rat relative to control; type: functional
Mus musculus [21] = assay: Anti-inflammatory activity against Carrageenan-induced paw edema in Swiss albino mouse assessed as change in paw volume at 10 mg/kg, PO measured for 3 to 6 hrs by plethysmometric analysis relative to control; type: functional; details: time 3-6 hrs

IC50 [1]: 0.2 µM
IC50 [2]: 1.7 µM
SMILES: Cc1ccc(/C=N/NC(=O)CNc2nc(-c3ccccc3)c(-c3ccccc3)s2)cc1

IC50 [5]: 20 µM
SMILES: CC1=NN(c2cccc(Cl)c2)C(=O)/C1=C\c1cn(-c2nc(N3CCOCC3)nc(N3CCOCC3)n2)c2ccccc12

IC50 [6]: 0.037 µM
SMILES: COc1ccc(/C=C/C(=O)c2cc(-n3cc(CN4C(=O)C(=O)c5ccccc54)nn3)ccc2O)cc1

IC50 (RAW264.7 [7]): 8.61 µM
IC50 (RAW264.7 [8]): 20.1 µM
IC50 (RAW264.7 [9]): 17.7 µM
SMILES: CN(C)c1cccc2c(S(=O)(=O)Oc3cccc4oc(=O)[nH]c34)cccc12

IC50 [10]: 5.64 µM
SMILES: Cc1ccc(Cl)c(Nc2ccccc2C(=O)O)c1Cl [MECLOFENAMATE SODIUM]

IC50 [15]: 65.4 µM
Qmax [16]: 76.3%
IC50 [17]: 360 µg/mL (≈ 1770 µM)
SMILES: COCc1nc2ccc3occc3c2o1

Further lines, the molecule ahead of its results:

SMILES: CCc1nnc(-c2cc3cc([N+](=O)[O-])ccc3o2)o1
Activity (Rattus norvegicus [3]): 72%

SMILES: O=C(Cc1cn(-c2ccccc2)nc1O)Nc1ccccc1-c1cc(-c2ccc(Br)cc2)n(-c2ccccc2)n1
LD50 at 336 h [4]: 2000 mg/kg

SMILES: CC1=NN(c2ccccc2C(=O)O)C(=O)/C1=N/Nc1ccc(S(N)(=O)=O)cc1
inhibition (INH) (Rattus norvegicus [11]): 54.54%
ED50 (Rattus norvegicus [12]): 44 µmol/kg

SMILES: COc1ccc(/C=C/C(=O)c2cccc(N3C(=O)c4ccccc4C3=O)c2)cc1OC
inhibition in vivo at 10 mg/kg (Mus musculus [13]): 45.8%
inhibition in vivo at 10 mg/kg (Rattus norvegicus [14]): 45%

SMILES: COc1ccc(-c2cc(-c3ccccc3)nn2CC(=O)Nc2ccc(S(N)(=O)=O)cc2)cc1
inhibition in vivo at 5 mg/kg (Rattus norvegicus [18]): 81%

SMILES: Cc1ccc(-c2cc(C(F)(F)F)nn2-c2ccc(S(N)(=O)=O)cc2)cc1 [CELECOXIB]
ED50 (Rattus norvegicus [19]): 34.1 mg/kg
Activity (Rattus norvegicus [20]): 83.4%
Activity (Mus musculus [21]): 32%
ED50 (Rattus norvegicus [12]): 32 µmol/kg
